From patent publication US6784192B2, “Piperidine compound and pharmaceutical composition thereof” (Eisai Co., Ltd., priority 2000, dated 2004) come the findings set out here.

Where two headings read alike, the source gives them in different places.

Assay [1] concerns sodium channel of synaptosome of rat cerebral cortex. The experiment in a line: Assessment for sodium channel of synaptosome of rat cerebral cortex (SBFI). It is filed as cell-based. As to the method: In the present experiment the synaptosome which was extracted from rat cerebral cortex was used. After sodium ion-sensitive dye, SBFI was taken in, the synaptosome was reacted with the respective tested substances (3 samples in 6 concentrations) at room temperature for 15 minutes in a 96 wells plate. The sodium channel inhibitory activity was measured using FDSS2000 of HAMAMATSU Photonics Co., Ltd. The sodium ion concentration in the synaptosome was measured once per 5 seconds using the fluorescent intensity of SBFI as an index. After measuring the control value 10 times, Veratridine was added so that the final concentration was 20 μM, and further measurement was carried out 30times. The inhibitory activity value of the tested substances for sodium channel was calculated, setting the action only by a measurement solution without the tested substance, as 0%, and the inhibitory activity caused by 2 μM of TTX which was a positive control, as 100%, as an inhibitory activity value corresponding to this action, using the increase of the fluorescent intensity of SBFI to the control value which was generated after addition of Veratridine, as an index.

A further assay concerns rabbit atrial muscle. Kind of assay: Assessment for rabbit atrial muscle, Vmax. To be noted: Test Example 4, right atrial muscle, stimulation frequency 4 Hz, 15 minutes. As to the method:
The specimen of the right atrial muscle which was enucleated from rabbit was used for the present experiment. The electrical stimulation was applied for the right atrial muscle which was enucleated, under conditions: a stimulation duration of 1 mess; a stimulation frequency of 4 Hz; and a stimulation intensity of about 1.2-fold of the threshold. The stimulation was provided from 30 minutes to 60 minutes before start of the experiment, and the condition of the specimen was stabilized. The action potential was recorded according to a glass microelectrode method. 3 M KCl was charged in the glass electrode, inserted in the specimen of the right atrium, and the action potential was recorded. Vmax is the parameter of the maximum upstroke slope of the action potential recorded, and a value which was automatically calculated by an action potential analysis soft (CAPA 1.23 manufactured by Physiotec. Co., Ltd.) was used. After the action potential in a normal Tyrode solution was recorded as control, the action potential after flowing the tested substances at respective concentrations for 15 minutes was recorded. The action of the tested substance for Vmax was calculated as an IC50 value.

The subject of assay [2] is spontaneous nerve discharge of cut left saphenous nerve. Kind of assay: Suppression of spontaneous nerve discharge (ectopic firing). It is filed as in vivo. To be noted: Test Example 5, rat, intravenous catheter, urethane anesthetized; for ED50: read-out: Ectopic Firing (ID50 mg/kg). As to the method:
In order to assess the suppression action for spontaneous nerve discharge, the experiment was carried out by a method below, referring to “Burchiel, K J., Exp. Nuerol., 102, 249-253 (1988)”. Namely, for the rat in which spontaneous discharge was observed, the left saphenous nerve was cut off nearby knee articulatio before 1 week or more, and around 3 mm of the nerve was cut off so that the nerve was not adhered again. The left saphenous nerve was exposed under urethane (1 g/kg body weight) anesthetized, and about 1 cm of adjacent portion from the cut portion was peeled from a periphery tissue. Further, a catheter was preliminarily inserted in the vein of a right neck for administration of a compound. The peeled nerve was mounted on a platinum hook electrode, and liquid paraffin was put on it so that the nerve was not dried. The electrode was connected with a fine electrode amplifier, and the value was recorded on a computer through an AD/converter from an oscilloscope. The nerve discharge recorded was assessed by the number of ignition per 10 seconds using an analysis soft (AcqKnowledge).

Where [3] appears, read: read-out: SBFI (IC50 μM); Test Example 3; Veratridine 20 μM; 2 μM TTX as 100%.
Where [4] appears, read: Test Example 3; Veratridine 20 μM; 2 μM TTX as 100%; read-out: SBFI (IC50 μM).

The IC50 is the concentration that inhibits the measured activity by half. For the compound `Cc1ccccc1CCC1CCN(Cc2ccc[nH]c2=O)CC1` [Example 285, 1-[(2-Oxo-1,2-dihydro-3-pyridinyl)methyl]-4-[2-(2-methylphenyl)ethyl]piperidine], the IC50 worked out at 7.7 µM in assay [1] (setting [3]) and 2.9 µM in the assay on rabbit atrial muscle (Oryctolagus cuniculus, 0.25 h). In assay [2], the ED50 worked out at 0.13 mg/kg.
As for `O=c1[nH]cc(Br)cc1CN1CCC(CCc2cccc3c2OCO3)CC1` [Example 291, 1-[(5-Bromo-2-oxo-1,2-dihydro-3-pyridinyl)methyl]-4-[2-[2,3-(methylenedioxy)phenyl]ethyl]piperidine], the IC50 in assay [1] (setting [4]) is 14.5 µM; in the assay with rabbit atrial muscle it was 6 µM. For the same compound, in assay [2], the “Ectopic Firing (ID50 mg/kg)” value amounted to 0.1 mg/kg.
In the case of `O=c1[nH]cc(Cl)cc1CN1CCC(CCc2ccccc2OCc2ccccc2)CC1` [Example 299], the IC50 came to 5.3 µM in assay [1] (setting [3]) and 50 µM in the assay with rabbit atrial muscle (Oryctolagus cuniculus, 0.25 h). In assay [2], the ED50 is 0.1 mg/kg.
In the same order, the values of `O=c1[nH]cc(Cl)cc1CN1CCC(CCc2ccccc2OCC2CCCCC2)CC1` [Example 301, 1-[(5-Chloro-2-oxo-1,2-dihydro-3-pyridinyl)methyl]-4-[2-[2-(cyclohexylmethyloxy)phenyl]ethyl]piperidine] are 6.5 µM, 100 µM and 0.18 mg/kg.
With `O=C(O)C(=O)O.O=c1[nH]cccc1CN1CCC(CCc2ccccc2OCC2CCCCC2)CC1` [Example 302, 1-[(2-Oxo-1,2-dihydro-3-pyridinyl)methyl]-4-[2-[2-(cyclohexylmethyloxy)phenyl]ethyl]piperidine oxalate], the half-maximal inhibitory concentration (IC50) in assay [1] (setting [3]) worked out at 1.2 µM; with rabbit atrial muscle (Oryctolagus cuniculus, 0.25 h) it was 22.5 µM. For the same compound, in assay [2], the ED50 worked out at 0.14 mg/kg.
On to `O=C(O)C(=O)O.O=c1[nH]cccc1CN1CCC(CCc2ccccc2CCc2ccccc2)CC1` [Example 306, 1-[(2-Oxo-1,2-dihydro-3-pyridinyl)methyl]-4-[[2-(2-phenylethyl)phenyl]ethyl]piperidine oxalate], for which the half-inhibitory concentration (IC50) in assay [1] (setting [3]) was found to be 1.3 µM; in the assay with rabbit atrial muscle (Oryctolagus cuniculus, 0.25 h), 1.9 µM. In addition, the ED50 in assay [2] was 0.17 mg/kg.
In the same order, the values of `CC(C)COc1ccccc1CCC1CCN(Cc2ccc[nH]c2=O)CC1.O=C(O)C(=O)O` [Example 308, 1-[(2-Oxo-1,2-dihydro-3-pyridinyl)methyl]-4-[2-[2-(isobutyloxy)phenyl]ethyl]piperidine oxalate] are 0.5 µM, 3.1 µM and 0.22 mg/kg.
On the same counts, the results for `O=C(O)C(=O)O.O=c1[nH]cccc1CN1CCC(CCc2ccccc2OCCc2ccccc2)CC1` [Example 309, 1-[(2-Oxo-1,2-dihydro-3-pyridinyl)methyl]-4-[2-[2-(2-phenylethoxy)phenyl]ethyl]piperidine oxalate] are 1 µM, 6.3 µM and 0.19 mg/kg.
Consider `O=C(O)C(=O)O.O=c1[nH]cccc1CN1CCC(CCc2ccccc2OCC2CCCC2)CC1` [Example 311, 1-[(2-Oxo-1,2-dihydro-3-pyridinyl)methyl]-4-[2-[2-(cyclopentylmethyloxy)phenyl]ethyl]piperidine oxalate], for which the IC50 is 0.7 µM in assay [1] (setting [3]) and 2 µM with rabbit atrial muscle (Oryctolagus cuniculus, 0.25 h). The ED50 in assay [2] is 0.13 mg/kg.
Turning to `Cl.Cl.O=c1[nH]cccc1CN1CCC(CCc2ccccc2NCc2ccccc2)CC1` [Example 313, 1-[(2-Oxo-1,2-dihydro-3-pyridinyl)methyl]-4-[2-[2-(benzylamino)phenyl]ethyl]piperidine dihydrochloride], the concentration for half-maximal inhibition (IC50) was found to be 1.5 µM in assay [1] (setting [3]) and 8.6 µM in the assay on rabbit atrial muscle (Oryctolagus cuniculus, 0.25 h). For the same compound, the ED50 in assay [2] was 0.16 mg/kg.
On the same counts, the results for `O=c1[nH]cc(Cl)cc1CN1CCC(CCc2cccc3c2OCO3)CC1` [Example 319] are 10.2 µM, 10 µM and 0.082 mg/kg.
As to `O=c1[nH]cc(Cl)cc1CN1CCC(CCc2ccccc2F)CC1` [Example 320], the IC50 in assay [1] (setting [3]) was 17 µM; with rabbit atrial muscle (Oryctolagus cuniculus, 0.25 h) it was 14.8 µM. Further, in assay [2], the ED50 came out at 0.041 mg/kg.
Take `CC(C)COc1ccccc1CCC1CCN(Cc2cc(Cl)c[nH]c2=O)CC1.O=C(O)C(=O)O` [Example 323, 1-[(5-Chloro-2-oxo-1,2-dihydro-3-pyridinyl)methyl]-4-[2-[2-(isobutyloxy)phenyl]ethyl]piperidine oxalate]: the IC50 in assay [1] (setting [3]) worked out at 4.8 µM; with rabbit atrial muscle (Oryctolagus cuniculus, 0.25 h) it was 3.9 µM. Moreover, in assay [2], the ED50 worked out at 0.083 mg/kg.
Turning to `O=C(O)C(=O)O.O=c1[nH]cccc1CN1CCC(CCc2ccccc2OC(F)(F)F)CC1` [Example 326, 1-[(2-Oxo-1,2-dihydro-3-pyridinyl)methyl]-4-[2-[2-(trifluoromethoxy)phenyl]ethyl]piperidine oxalate], the IC50 was determined as 1.9 µM in assay [1] (setting [3]) and 3.98 µM in the assay on rabbit atrial muscle (Oryctolagus cuniculus, 0.25 h). Also, in assay [2], the ED50 was 0.18 mg/kg.
In the same order, the values of `O=c1[nH]cccc1CN1CCC(C=C(c2ccccc2)c2ccccc2)CC1` [Example 333, 1-[(2-Oxo-1,2-dihydro-3-pyridinyl)methyl]-4-(2,2-diphenyl-1-ethenyl)piperidine] are 5.4 µM, 4.9 µM and 0.15 mg/kg.
As for `O=c1[nH]cc(F)cc1CN1CCC(/C=C/c2ccccc2F)CC1` [Example 335, 1-[(5-Fluoro-2-oxo-1,2-dihydro-3-pyridinyl)methyl]-4-[(E)-2-(2-fluorophenyl)-1-ethenyl]piperidine], in the assay with rabbit atrial muscle (Oryctolagus cuniculus, 0.25 h), the IC50 turned out to be 7.8 µM. For the same compound, the ED50 in assay [2] was 0.034 mg/kg.
Take `O=C(O)C(=O)O.O=c1[nH]cccc1CN1CCC(/C=C/c2ccccc2OCc2ccccc2)CC1` [Example 338, 1-[(2-Oxo-1,2-dihydro-3-pyridinyl)methyl]-4-[(E)-2-[2-(benzyloxy)phenyl]-1-ethenyl]piperidine oxalate]: the IC50 in assay [1] (setting [3]) came to 1.2 µM; in the assay on rabbit atrial muscle (Oryctolagus cuniculus, 0.25 h) it was 11.4 µM. For the same compound, the ED50 in assay [2] is 0.19 mg/kg.
On to `O=C(O)C(=O)O.O=c1[nH]cccc1CN1CCC(/C=C/c2ccccc2OCC2CCCCC2)CC1` [Example 343, 1-[(2-Oxo-1,2-dihydro-3-pyridinyl)methyl]-4-[(E)-2-[(2-cyclohexylmethyloxy)phenyl]-1-ethenyl]piperidine oxalate], for which it took 30 µM to reach half-maximal inhibition in the assay on rabbit atrial muscle (IC50). Besides, the “Ectopic Firing (ID50 mg/kg)” value in assay [2] was 0.13 mg/kg.
In the case of `O=C(O)C(=O)O.O=c1[nH]cccc1CN1CCC(/C=C\c2ccccc2OCC2CCCCC2)CC1` [Example 344, 1-[(2-Oxo-1,2-dihydro-3-pyridinyl)methyl]-4-[(Z)-2-[(2-cyclohexylmethyloxy)phenyl]-1-ethenyl]piperidine oxalate], the IC50 with rabbit atrial muscle came out at 30 µM. Further, in assay [2], the “Ectopic Firing (ID50 mg/kg)” value worked out at 0.19 mg/kg.
On to `O=c1[nH]cc(Cl)cc1CN1CCC(COc2ccc(F)cc2F)CC1` [Example 370, 1-[(5-Chloro-2-oxo-1,2-dihydro-3-pyridinyl)methyl]-4-[(2,4-difluorophenoxy)methyl]piperidine], for which the IC50 in assay [1] (setting [3]) was determined as 33.6 µM; in the assay with rabbit atrial muscle (Oryctolagus cuniculus, 0.25 h), 45 µM. In addition, the ED50 in assay [2] worked out at 0.081 mg/kg.
On the same counts, the results for `O=c1[nH]cc(Cl)cc1CN1CCC(COc2cc(F)ccc2F)CC1` [Example 372, 1-[(5-Chloro-2-oxo-1,2-dihydro-3-pyridinyl)methyl]-4-[(2,5-difluorophenoxy)methyl]piperidine] are 21.8 µM, 9.3 µM and 0.11 mg/kg.
For the compound `O=c1[nH]cccc1CN1CCC(COc2ccccc2Cl)CC1` [Example 376, 1-[(2-Oxo-1,2-dihydro-3-pyridinyl)methyl]-4-[(2-chlorophenoxy)methyl]piperidine], in assay [1] (setting [3]), the IC50 was determined as 20.3 µM. In assay [2], the ED50 came to 0.07 mg/kg.
Take `O=c1[nH]c2ccccc2cc1CN1CCC(CCc2cccc3c2OCO3)CC1` [Example 380, 1-[(2-Oxo-1,2-dihydro-3-quinolinyl)methyl]-4-[2-[2,3-(methylenedioxy)phenyl]ethyl]piperidine]: the IC50 in assay [1] (setting [4]) was found to be 3.9 µM; with rabbit atrial muscle, 8.6 µM. In addition, in assay [2], the “Ectopic Firing (ID50 mg/kg)” value was determined as 0.1 mg/kg.
